Data published in ChEMBL document CHEMBL1151757, “Synthesis, radiosynthesis, and biological evaluation of fluorine-18-labeled 2beta-carbo(fluoroalkoxy)-3beta-(3'-((Z)-2-haloethenyl)phenyl)nortropanes: candidate radioligands for in vivo imaging of the serotonin transporter with positron emission tomography” (J Med Chem, 2008).

Columns and labels:
[1] = Ratio of drug uptake in pons to cerebellum in anesthetized cynomolgus monkey after 145 mins postinjection; type: ADME, organism-based, Macaca fascicularis; settings: in vivo
[2] = Ratio of drug uptake in pons to cerebellum in anesthetized cynomolgus monkey after 225 mins postinjection; type: ADME, organism-based, Macaca fascicularis; settings: in vivo, 3.75 h
[3] = Ratio of drug uptake in medulla to cerebellum in anesthetized cynomolgus monkey after 9.5 mins postinjection; type: ADME, organism-based, Macaca fascicularis; settings: in vivo
[4] = Ratio of drug uptake in medulla to cerebellum in anesthetized cynomolgus monkey after 18.5 mins postinjection; type: ADME, organism-based, Macaca fascicularis; settings: in vivo
[5] = Drug uptake in anesthetized cynomolgus monkey brain occipital lobe after 1.5 mins postinjection; type: ADME, organism-based, Macaca fascicularis; settings: in vivo, 0.025 h
[6] = Drug uptake in anesthetized cynomolgus monkey brain occipital lobe after 9.5 mins postinjection; type: ADME, organism-based, Macaca fascicularis; settings: in vivo
[7] = Drug uptake in anesthetized cynomolgus monkey brain occipital lobe after 115 mins postinjection; type: ADME, organism-based, Macaca fascicularis; settings: in vivo
[8] = Drug uptake in anesthetized cynomolgus monkey brain occipital lobe after 225 mins postinjection; type: ADME, organism-based, Macaca fascicularis; settings: in vivo, 3.75 h
[9] = Drug uptake in anesthetized cynomolgus monkey brain frontal lobe after 9.5 mins postinjection; type: ADME, organism-based, Macaca fascicularis; settings: in vivo
[10] = Drug uptake in anesthetized cynomolgus monkey brain frontal lobe after 12.5 mins postinjection; type: ADME, organism-based, Macaca fascicularis; settings: in vivo
[11] = Drug uptake in anesthetized cynomolgus monkey brain frontal lobe after 65 mins postinjection; type: ADME, organism-based, Macaca fascicularis; settings: in vivo
[12] = Drug uptake in anesthetized cynomolgus monkey brain frontal lobe after 85 mins postinjection; type: ADME, organism-based, Macaca fascicularis; settings: in vivo
[13] = Drug uptake in anesthetized cynomolgus monkey brain frontal lobe after 115 mins postinjection; type: ADME, organism-based, Macaca fascicularis; settings: in vivo
[14] = Drug uptake in anesthetized cynomolgus monkey brain frontal lobe after 125 mins postinjection; type: ADME, organism-based, Macaca fascicularis; settings: in vivo
[15] = Drug uptake in anesthetized cynomolgus monkey brain frontal lobe after 165 mins postinjection; type: ADME, organism-based, Macaca fascicularis; settings: in vivo, 2.75 h
Thalamus [16] = experiment: Drug uptake in anesthetized cynomolgus monkey brain thalamus after 1.5 mins postinjection; type: ADME, organism-based, Macaca fascicularis; settings: in vivo, 0.025 h
[17] = Ratio of drug uptake in frontal lobe to cerebellum in anesthetized cynomolgus monkey after 3.5 mins postinjection; type: ADME, organism-based, Macaca fascicularis; settings: in vivo
[18] = Ratio of drug uptake in frontal lobe to cerebellum in anesthetized cynomolgus monkey after 95 mins postinjection; type: ADME, organism-based, Macaca fascicularis; settings: in vivo
[19] = Ratio of drug uptake in frontal lobe to cerebellum in anesthetized cynomolgus monkey after 145 mins postinjection; type: ADME, organism-based, Macaca fascicularis; settings: in vivo
Pons [20] = experiment: Drug uptake in anesthetized cynomolgus monkey brain pons after 4.5 mins postinjection; type: ADME, organism-based, Macaca fascicularis; settings: in vivo, 0.075 h
Pons [21] = experiment: Drug uptake in anesthetized cynomolgus monkey brain pons after 15.5 mins postinjection; type: ADME, organism-based, Macaca fascicularis; settings: in vivo
Pons [22] = experiment: Drug uptake in anesthetized cynomolgus monkey brain pons after 22.5 mins postinjection; type: ADME, organism-based, Macaca fascicularis; settings: in vivo, 0.375 h
Pons [23] = experiment: Drug uptake in anesthetized cynomolgus monkey brain pons after 55 mins postinjection; type: ADME, organism-based, Macaca fascicularis; settings: in vivo
Medulla [24] = experiment: Drug uptake in anesthetized cynomolgus monkey brain medulla after 195 mins postinjection; type: ADME, organism-based, Macaca fascicularis; settings: in vivo, 3.25 h
[25] = Drug uptake in anesthetized cynomolgus monkey brain occipital lobe after 205 mins postinjection; type: ADME, organism-based, Macaca fascicularis; settings: in vivo
[26] = Drug uptake in anesthetized cynomolgus monkey brain cerebellum after 205 mins postinjection; type: ADME, organism-based, Macaca fascicularis; settings: in vivo
[27] = Ratio of drug uptake in frontal lobe to cerebellum in anesthetized cynomolgus monkey after 235 mins postinjection; type: ADME, organism-based, Macaca fascicularis; settings: in vivo
Putamen [28] = experiment: Drug uptake in anesthetized cynomolgus monkey brain putamen after 195 mins postinjection; type: ADME, organism-based, Macaca fascicularis; settings: in vivo, 3.25 h
Pons [29] = experiment: Drug uptake in anesthetized cynomolgus monkey brain pons after 135 mins postinjection; type: ADME, organism-based, Macaca fascicularis; settings: in vivo, 2.25 h
Pons [30] = experiment: Drug uptake in anesthetized cynomolgus monkey brain pons after 225 mins postinjection; type: ADME, organism-based, Macaca fascicularis; settings: in vivo, 3.75 h
Medulla [31] = experiment: Drug uptake in anesthetized cynomolgus monkey brain medulla after 9.5 mins postinjection; type: ADME, organism-based, Macaca fascicularis; settings: in vivo
Medulla [32] = experiment: Drug uptake in anesthetized cynomolgus monkey brain medulla after 35 mins postinjection; type: ADME, organism-based, Macaca fascicularis; settings: in vivo
Medulla [33] = experiment: Drug uptake in anesthetized cynomolgus monkey brain medulla after 45 mins postinjection; type: ADME, organism-based, Macaca fascicularis; settings: in vivo, 0.75 h
Medulla [34] = experiment: Drug uptake in anesthetized cynomolgus monkey brain medulla after 55 mins postinjection; type: ADME, organism-based, Macaca fascicularis; settings: in vivo
Medulla [35] = experiment: Drug uptake in anesthetized cynomolgus monkey brain medulla after 65 mins postinjection; type: ADME, organism-based, Macaca fascicularis; settings: in vivo
Medulla [36] = experiment: Drug uptake in anesthetized cynomolgus monkey brain medulla after 85 mins postinjection; type: ADME, organism-based, Macaca fascicularis; settings: in vivo
Medulla [37] = experiment: Drug uptake in anesthetized cynomolgus monkey brain medulla after 95 mins postinjection; type: ADME, organism-based, Macaca fascicularis; settings: in vivo
[38] = Ratio of drug uptake in putamen to cerebellum in anesthetized cynomolgus monkey after 0.5 mins postinjection; type: ADME, organism-based, Macaca fascicularis; settings: in vivo
[39] = Ratio of drug uptake in putamen to cerebellum in anesthetized cynomolgus monkey after 6.5 mins postinjection; type: ADME, organism-based, Macaca fascicularis; settings: in vivo
Medulla [40] = experiment: Drug uptake in anesthetized cynomolgus monkey brain medulla after 125 mins postinjection; type: ADME, organism-based, Macaca fascicularis; settings: in vivo
Medulla [41] = experiment: Drug uptake in anesthetized cynomolgus monkey brain medulla after 175 mins postinjection; type: ADME, organism-based, Macaca fascicularis; settings: in vivo
[42] = Drug uptake in anesthetized cynomolgus monkey brain cerebellum after 9.5 mins postinjection; type: ADME, organism-based, Macaca fascicularis; settings: in vivo
[43] = Drug uptake in anesthetized cynomolgus monkey brain cerebellum after 27.5 mins postinjection; type: ADME, organism-based, Macaca fascicularis; settings: in vivo
[44] = Drug uptake in anesthetized cynomolgus monkey brain cerebellum after 85 mins postinjection; type: ADME, organism-based, Macaca fascicularis; settings: in vivo
[45] = Drug uptake in anesthetized cynomolgus monkey brain cerebellum after 115 mins postinjection; type: ADME, organism-based, Macaca fascicularis; settings: in vivo
[46] = Drug uptake in anesthetized cynomolgus monkey brain cerebellum after 135 mins postinjection; type: ADME, organism-based, Macaca fascicularis; settings: in vivo, 2.25 h
[47] = Ratio of drug uptake in putamen to cerebellum in anesthetized cynomolgus monkey after 65 mins postinjection; type: ADME, organism-based, Macaca fascicularis; settings: in vivo
[48] = Ratio of drug uptake in thalamus to cerebellum in anesthetized cynomolgus monkey after 9.5 mins postinjection; type: ADME, organism-based, Macaca fascicularis; settings: in vivo
[49] = Ratio of drug uptake in thalamus to cerebellum in anesthetized cynomolgus monkey after 95 mins postinjection; type: ADME, organism-based, Macaca fascicularis; settings: in vivo
Caudate [50] = experiment: Drug uptake in anesthetized cynomolgus monkey brain caudate after 2.5 mins postinjection; type: ADME, organism-based, Macaca fascicularis, Caudate nucleus; settings: in vivo
Caudate [51] = experiment: Drug uptake in anesthetized cynomolgus monkey brain caudate after 9.5 mins postinjection; type: ADME, organism-based, Macaca fascicularis, Caudate nucleus; settings: in vivo
Caudate [52] = experiment: Drug uptake in anesthetized cynomolgus monkey brain caudate after 27.5 mins postinjection; type: ADME, organism-based, Macaca fascicularis, Caudate nucleus; settings: in vivo
Caudate [53] = experiment: Drug uptake in anesthetized cynomolgus monkey brain caudate after 75 mins postinjection; type: ADME, organism-based, Macaca fascicularis, Caudate nucleus; settings: in vivo, 1.25 h
Caudate [54] = experiment: Drug uptake in anesthetized cynomolgus monkey brain caudate after 95 mins postinjection; type: ADME, organism-based, Macaca fascicularis, Caudate nucleus; settings: in vivo
Caudate [55] = experiment: Drug uptake in anesthetized cynomolgus monkey brain caudate after 235 mins postinjection; type: ADME, organism-based, Macaca fascicularis, Caudate nucleus; settings: in vivo
Putamen [56] = experiment: Drug uptake in anesthetized cynomolgus monkey brain putamen after 1.5 mins postinjection; type: ADME, organism-based, Macaca fascicularis; settings: in vivo, 0.025 h
Thalamus [57] = experiment: Drug uptake in anesthetized cynomolgus monkey brain thalamus after 2.5 mins postinjection; type: ADME, organism-based, Macaca fascicularis; design: unit not given here; settings: in vivo
Thalamus [58] = experiment: Drug uptake in anesthetized cynomolgus monkey brain thalamus after 6.5 mins postinjection; type: ADME, organism-based, Macaca fascicularis; design: unit not given here; settings: in vivo
Putamen [59] = experiment: Drug uptake in anesthetized cynomolgus monkey brain putamen after 27.5 mins postinjection; type: ADME, organism-based, Macaca fascicularis; design: unit not given here; settings: in vivo
Putamen [60] = experiment: Drug uptake in anesthetized cynomolgus monkey brain putamen after 55 mins postinjection; type: ADME, organism-based, Macaca fascicularis; design: unit not given here; settings: in vivo
Putamen [61] = experiment: Drug uptake in anesthetized cynomolgus monkey brain putamen after 75 mins postinjection; type: ADME, organism-based, Macaca fascicularis; design: unit not given here; settings: in vivo, 1.25 h
Putamen [62] = experiment: Drug uptake in anesthetized cynomolgus monkey brain putamen after 95 mins postinjection; type: ADME, organism-based, Macaca fascicularis; design: unit not given here; settings: in vivo
Thalamus [63] = experiment: Drug uptake in anesthetized cynomolgus monkey brain thalamus after 115 mins postinjection; type: ADME, organism-based, Macaca fascicularis; design: unit not given here; settings: in vivo
Thalamus [64] = experiment: Drug uptake in anesthetized cynomolgus monkey brain thalamus after 125 mins postinjection; type: ADME, organism-based, Macaca fascicularis; design: unit not given here; settings: in vivo
Thalamus [65] = experiment: Drug uptake in anesthetized cynomolgus monkey brain thalamus after 235 mins postinjection; type: ADME, organism-based, Macaca fascicularis; design: unit not given here; settings: in vivo
Midbrain [66] = experiment: Drug uptake in anesthetized cynomolgus monkey brain midbrain after 95 mins postinjection; type: ADME, organism-based, Macaca fascicularis; design: unit not given here; settings: in vivo
Midbrain [67] = experiment: Drug uptake in anesthetized cynomolgus monkey brain midbrain after 105 mins postinjection; type: ADME, organism-based, Macaca fascicularis; design: unit not given here; settings: in vivo, 1.75 h
Midbrain [68] = experiment: Drug uptake in anesthetized cynomolgus monkey brain midbrain after 115 mins postinjection; type: ADME, organism-based, Macaca fascicularis; design: unit not given here; settings: in vivo

## O=C(OCC[18F])C1C2CCC(CC1c1cccc(/C=C\Br)c1)N2 (stereo not drawn)
[1]
  Ratio: 1.8
[2]
  Ratio: 1.7
[3]
  Ratio: 1.2
[4]
  Ratio: 1.2
[5]
  Drug uptake: 0.06
[6]
  Drug uptake: 2.66
[7]
  Drug uptake: 3.02
[8]
  Drug uptake: 1.95
[9]
  Drug uptake: 2.06
[10]
  Drug uptake: 2.27
[11]
  Drug uptake: 2.94
[12]
  Drug uptake: 2.88
[13]
  Drug uptake: 2.69
[14]
  Drug uptake: 2.69
[15]
  Drug uptake: 2.38
Thalamus [16]
  Drug uptake: 0.08
[17]
  Ratio: 0.5
[18]
  Ratio: 0.9
[19]
  Ratio: 1.1
Pons [20]
  Drug uptake: 1.78
Pons [21]
  Drug uptake: 3.73
Pons [22]
  Drug uptake: 3.81
Pons [23]
  Drug uptake: 4.36
Medulla [24]
  Drug uptake: 3.34
[25]
  Drug uptake: 2.28
[26]
  Drug uptake: 1.8
[27]
  Ratio: 1.2
Putamen [28]
  Drug uptake: 3.53
Pons [29]
  Drug uptake: 4.26
Pons [30]
  Drug uptake: 2.77
Medulla [31]
  Drug uptake: 3.76
Medulla [32]
  Drug uptake: 4.97
Medulla [33]
  Drug uptake: 4.87
Medulla [34]
  Drug uptake: 4.82
Medulla [35]
  Drug uptake: 4.81
Medulla [36]
  Drug uptake: 4.73
Medulla [37]
  Drug uptake: 4.55
[38]
  Ratio: 1.3
[39]
  Ratio: 1.1
Medulla [40]
  Drug uptake: 4.14
Medulla [41]
  Drug uptake: 3.62
[42]
  Drug uptake: 3.17
[43]
  Drug uptake: 3.8
[44]
  Drug uptake: 3.17
[45]
  Drug uptake: 2.78
[46]
  Drug uptake: 2.43
[47]
  Ratio: 1.5
[48]
  Ratio: 0.9
[49]
  Ratio: 1.4
Caudate [50]
  Drug uptake: 0.36
Caudate [51]
  Drug uptake: 2.36
Caudate [52]
  Drug uptake: 3.3
Caudate [53]
  Drug uptake: 3.94
Caudate [54]
  Drug uptake: 4.15
Caudate [55]
  Drug uptake: 2.53
Putamen [56]
  Drug uptake: 0.06
Thalamus [57]
  Drug uptake: 0.29
Thalamus [58]
  Drug uptake: 2.44
Putamen [59]
  Drug uptake: 4.67
Putamen [60]
  Drug uptake: 5.05
Putamen [61]
  Drug uptake: 5
Putamen [62]
  Drug uptake: 4.83
Thalamus [63]
  Drug uptake: 4.22
Thalamus [64]
  Drug uptake: 4.15
Thalamus [65]
  Drug uptake: 2.88
Midbrain [66]
  Drug uptake: 4.91
Midbrain [67]
  Drug uptake: 4.87
Midbrain [68]
  Drug uptake: 4.78
